Experimental data taken from patent US20220227796A1, “EGFR INHIBITORS, COMPOSITIONS AND METHODS THERE OF” (Betta Pharmaceuticals Co., Ltd., priority 2019, published 2022).
Read-outs that look alike come from different tables or passages of the source. Blank lines part the entries; values can stand above or below the compound they belong to.

Key:
H1975(L858R/T790M) = test: H1975 cells proliferation assay; type: cell-based; details: for IC50: Homo sapiens, read-out: H1975 IC50
Procedure: (§1) Test 3 H1975 and HCC827 Cells Proliferation Assay
(§2) a) The medium was preheated in a 37° C. water bath in advance.
(§3) b) Remove the cryogenic vials from the liquid nitrogen tank, quickly put it into a 37° C. water bath, and completely melt it in 1 min.
(§4) c) Transfer the cell suspension to a 15 mL centrifuge tube containing 8 mL medium, centrifuge 1000 rpm, 5 min.
(§5) d) Discard the supernatant, resuspend the cells in 1 mL medium, and transfer to a 75 cm^2 flask containing 15 mL medium, culture the cells in an incubator at 37° C., 5% CO2.
(§6) b) Collect cell to a 15 mL centrifuged tube, centrifuge at 1000 rpm for 5 min. Discard the supernatant, count, and make the cell density at 1×10^4 cells/mL, then place it in a 37° C., 5% CO2 incubator.
(§7) b) The above compound solution was diluted 1:20 times with culture medium to prepare a 10 fold working solution;
(§8) a) Take cells in log phase growth, centrifuge at 1000 rpm for 5 min, then resuspend the cells with culture medium, then count cells;
(§9) b) Cells were seeded to 96-well cell culture plate with density at 2000 cells/well (suitable for H1975 cell) and at 2500 cells/well (suitable for HCC827 cell);
(§10) The blank control well was a culture medium (0.5% DMSO);
(§11) b) The cells were incubated for an additional 72 h in the incubator.
(§12) a) Remove the 96-well cell culture plate and add 50 μl of CTG reagent (CellTiter Glo kit, promega, Cat #G7573).
(§13) b) Plate was shaked for 2 min and then let it cool for 10 min at room temperature.
(§14) c) The Luminescence signal value was read using a PerkinElmer reader.
(§15) Experimental Data Analysis
(§16) Data were analyzed using GraphPad Prism 6.0 software to obtain a fitted curve of compound activity.
(§17) Y=Bottom+(Top−Bottom)/(1+10^((Log IC50−X)*HillSlope));
(§18) The cells proliferation assay results are expressed with IC50, shown as Table 2.

HCC827(Δ19del) = test: HCC827 cells proliferation assay; type: cell-based; details: Homo sapiens, read-out: HCC827 IC50
Procedure: as §1, §2, §3, §4, §5, §6, §7, §8, §9, §10, §11, §12, §13, §14, §15, §16, §17, §18

EGFR Δ19del/T790M/C797S = EGFR Δ19del/T790M/C797S (Homo sapiens, UniProt P00533, T790M/C797S, form not given); test: Kinase assay (mobility shift) for EGFR Δ19del/T790M/C797S; type: biochemical; details: read-out: EGFR Δ 19del/T790M/C797S IC50
Procedure: (§19) Enzyme reaction protocol are as followed:
(§20) 1. Preparing 1* Kinase buffer as followed.
(§21) 2. Preparing Compound Concentration Gradient: Compounds were tested at a concentration of 300 nM, diluted to 100-fold final concentration in 100% DMSO solution in 96-well plates, and compounds were diluted 3 times with Precision, 10 concentrations. Each concentration of the compound was then further diluted to a 5-fold final concentration of the intermediate dilution solution using 1* Kinase buffer.
(§22) 3. 5 μL of each of the prepared intermediate dilution compounds was separately added to the compound wells of the 384-well plate, and each concentration was tested for duplicate wells; 5 μL of 5% DMSO was added to the negative control wells and the positive control wells, respectively.
(§23) 4. 2.5-fold final concentration of the kinase solution was prepared using 1*Kinase buffer.
(§24) 6. Centrifuge at 1000 rpm for 30 seconds, shake the reaction plate and incubate for 10 minutes at room temperature.
(§25) 8. 10 μL of a 2.5-fold final concentration of a mixed solution of ATP and a substrate was added to initiate the reaction.
(§26) 9. Centrifuge the 384-well plate at 1000 rpm for 30 seconds, mix by shaking, and incubate at room temperature for the corresponding time.
(§27) 10. Add 30 μL of the stop solution to stop the kinase reaction, centrifuge at 1000 rpm for 30 seconds, and mix by shaking.
(§28) 11. Read the conversion rate with Caliper EZ Reader.
(§29) Convert conversion values to inhibition values:
(§30) Percent inhibition=(max−conversion % sample)/(max−min)*100.
(§31) “max” stands for the mean value of the positive control well ratio; “min” stands for the mean value of the negative control well; conversion % sample: sample conversion reading.
(§32) Fit the data in log(inhibitor) vs. response Variable slope of GraphPad Prism 5 to obtain IC50 values.
(§33) Equation used is: Y=Bottom+(Top−Bottom)/(1+(IC50/X)*HillSlope)

EGFR L858R = EGFR L858R (Homo sapiens, UniProt P00533, L858R); test: Kinase assay (mobility shift) for EGFR L858R; type: biochemical
Procedure: as §19, §20, §21, §22, §23, §24, §25, §26, §27, §28, §29, §30, §31, §32, §33

EGFR T790M/L858R = EGFR T790M/L858R (Homo sapiens, UniProt P00533, L858R/T790M); test: Kinase assay (mobility shift) for EGFR T790M/L858R; type: biochemical
Procedure: as §19, §20, §21, §22, §23, §24, §25, §26, §27, §28, §29, §30, §31, §32, §33

[1] = NCI-H1975, cell proliferation, 72 h, CellTiter Glo, class symbols
[2] = HCC827, cell proliferation, 72 h, CellTiter Glo, class symbols

Sequence of EGFR L858R (P00533 25-1210 L858R): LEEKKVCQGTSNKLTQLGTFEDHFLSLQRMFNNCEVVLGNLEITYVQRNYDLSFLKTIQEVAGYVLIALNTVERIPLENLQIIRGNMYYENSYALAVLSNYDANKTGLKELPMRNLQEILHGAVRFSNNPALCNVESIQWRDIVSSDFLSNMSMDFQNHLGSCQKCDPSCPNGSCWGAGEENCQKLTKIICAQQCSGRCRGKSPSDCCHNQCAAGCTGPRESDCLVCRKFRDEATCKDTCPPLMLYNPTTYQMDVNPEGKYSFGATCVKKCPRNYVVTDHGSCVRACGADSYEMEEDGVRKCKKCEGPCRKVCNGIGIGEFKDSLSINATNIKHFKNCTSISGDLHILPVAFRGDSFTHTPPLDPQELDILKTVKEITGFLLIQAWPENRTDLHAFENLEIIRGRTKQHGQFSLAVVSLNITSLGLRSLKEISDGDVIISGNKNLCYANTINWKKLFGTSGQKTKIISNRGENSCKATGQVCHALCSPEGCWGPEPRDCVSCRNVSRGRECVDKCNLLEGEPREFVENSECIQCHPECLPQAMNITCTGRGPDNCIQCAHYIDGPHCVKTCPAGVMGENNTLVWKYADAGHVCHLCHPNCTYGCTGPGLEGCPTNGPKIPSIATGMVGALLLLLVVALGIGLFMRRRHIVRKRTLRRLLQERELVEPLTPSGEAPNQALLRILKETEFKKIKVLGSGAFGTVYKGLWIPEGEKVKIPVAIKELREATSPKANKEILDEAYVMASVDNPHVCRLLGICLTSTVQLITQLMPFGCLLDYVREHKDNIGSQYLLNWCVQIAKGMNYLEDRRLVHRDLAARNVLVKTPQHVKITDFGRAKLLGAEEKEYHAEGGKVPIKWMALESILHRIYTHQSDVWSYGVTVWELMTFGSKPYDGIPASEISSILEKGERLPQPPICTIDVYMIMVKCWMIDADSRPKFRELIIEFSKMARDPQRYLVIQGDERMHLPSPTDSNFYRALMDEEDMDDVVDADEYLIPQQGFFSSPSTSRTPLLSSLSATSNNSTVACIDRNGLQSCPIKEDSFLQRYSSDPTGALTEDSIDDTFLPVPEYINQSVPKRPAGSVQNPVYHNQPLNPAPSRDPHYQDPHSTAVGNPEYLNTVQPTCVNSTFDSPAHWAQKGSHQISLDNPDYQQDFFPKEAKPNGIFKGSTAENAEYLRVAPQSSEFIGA
Sequence of EGFR Δ19del/T790M/C797S (P00533 with tags, fused parts or gaps DEL746-750/T790M/C797S, form open): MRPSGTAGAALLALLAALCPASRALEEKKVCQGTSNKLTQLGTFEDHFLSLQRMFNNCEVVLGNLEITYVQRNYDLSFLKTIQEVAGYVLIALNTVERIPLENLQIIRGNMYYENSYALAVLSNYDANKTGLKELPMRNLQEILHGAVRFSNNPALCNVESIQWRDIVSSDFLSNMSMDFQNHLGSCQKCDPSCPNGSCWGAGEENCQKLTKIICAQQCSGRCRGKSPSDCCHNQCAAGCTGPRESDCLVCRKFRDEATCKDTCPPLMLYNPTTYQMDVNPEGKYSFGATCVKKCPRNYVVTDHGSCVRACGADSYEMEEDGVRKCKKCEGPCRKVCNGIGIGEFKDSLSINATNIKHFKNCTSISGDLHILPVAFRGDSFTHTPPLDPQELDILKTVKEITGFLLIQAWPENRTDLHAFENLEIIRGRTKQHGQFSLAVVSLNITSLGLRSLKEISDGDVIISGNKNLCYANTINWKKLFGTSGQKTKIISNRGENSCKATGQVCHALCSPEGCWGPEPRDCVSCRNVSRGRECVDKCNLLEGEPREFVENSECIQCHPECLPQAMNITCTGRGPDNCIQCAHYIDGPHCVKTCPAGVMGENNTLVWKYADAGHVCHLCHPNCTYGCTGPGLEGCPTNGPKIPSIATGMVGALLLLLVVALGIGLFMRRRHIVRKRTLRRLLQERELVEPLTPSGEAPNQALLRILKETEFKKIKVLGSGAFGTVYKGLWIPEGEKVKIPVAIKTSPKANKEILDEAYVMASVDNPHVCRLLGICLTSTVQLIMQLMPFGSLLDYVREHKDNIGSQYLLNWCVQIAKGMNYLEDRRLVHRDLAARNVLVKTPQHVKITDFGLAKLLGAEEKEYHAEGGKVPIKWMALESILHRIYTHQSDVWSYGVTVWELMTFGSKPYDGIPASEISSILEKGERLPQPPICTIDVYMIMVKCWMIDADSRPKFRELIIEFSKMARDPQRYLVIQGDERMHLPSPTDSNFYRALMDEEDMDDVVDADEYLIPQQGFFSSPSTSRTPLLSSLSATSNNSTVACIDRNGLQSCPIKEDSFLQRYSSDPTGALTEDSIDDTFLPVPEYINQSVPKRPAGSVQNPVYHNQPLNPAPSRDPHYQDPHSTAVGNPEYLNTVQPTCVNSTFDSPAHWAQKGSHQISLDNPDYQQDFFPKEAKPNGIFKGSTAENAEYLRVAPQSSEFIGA
Sequence of EGFR T790M/L858R (P00533 25-1210 T790M/L858R): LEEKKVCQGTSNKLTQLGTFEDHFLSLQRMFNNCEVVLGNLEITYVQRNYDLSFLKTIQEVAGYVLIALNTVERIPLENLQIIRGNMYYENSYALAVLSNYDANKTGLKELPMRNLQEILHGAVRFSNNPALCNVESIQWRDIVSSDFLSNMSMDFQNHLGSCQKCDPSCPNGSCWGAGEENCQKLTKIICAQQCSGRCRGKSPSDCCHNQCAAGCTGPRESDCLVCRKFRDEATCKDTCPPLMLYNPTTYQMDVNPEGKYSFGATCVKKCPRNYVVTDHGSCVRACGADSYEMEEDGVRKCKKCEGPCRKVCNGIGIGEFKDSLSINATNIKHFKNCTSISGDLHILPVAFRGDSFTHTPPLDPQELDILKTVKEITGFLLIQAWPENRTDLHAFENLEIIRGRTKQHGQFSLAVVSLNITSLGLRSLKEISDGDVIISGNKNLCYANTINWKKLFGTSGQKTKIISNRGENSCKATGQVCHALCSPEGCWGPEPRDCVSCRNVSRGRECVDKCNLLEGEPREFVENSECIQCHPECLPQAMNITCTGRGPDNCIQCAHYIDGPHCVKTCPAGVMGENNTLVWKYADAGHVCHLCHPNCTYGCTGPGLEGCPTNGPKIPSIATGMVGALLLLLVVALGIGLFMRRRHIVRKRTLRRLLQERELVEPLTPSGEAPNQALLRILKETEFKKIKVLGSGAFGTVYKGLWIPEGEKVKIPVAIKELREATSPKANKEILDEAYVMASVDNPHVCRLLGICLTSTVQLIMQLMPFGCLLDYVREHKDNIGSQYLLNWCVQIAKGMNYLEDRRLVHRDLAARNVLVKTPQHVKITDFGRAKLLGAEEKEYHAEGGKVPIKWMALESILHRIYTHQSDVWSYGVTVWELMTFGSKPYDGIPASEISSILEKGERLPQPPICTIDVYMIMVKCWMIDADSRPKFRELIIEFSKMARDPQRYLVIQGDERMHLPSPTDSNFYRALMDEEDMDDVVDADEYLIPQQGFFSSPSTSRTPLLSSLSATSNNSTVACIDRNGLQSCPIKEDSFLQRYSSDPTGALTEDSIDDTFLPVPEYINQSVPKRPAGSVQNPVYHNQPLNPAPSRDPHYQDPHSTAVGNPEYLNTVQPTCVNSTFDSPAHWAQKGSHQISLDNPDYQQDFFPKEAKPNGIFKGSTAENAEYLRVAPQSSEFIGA

Compound: C=CC(=O)Nc1cc(Nc2nccc(Nc3ccccc3P(C)(C)=O)n2)ccc1N1CCC2(CC1)CC(N(C)C)C2 [Compound 4, N-(2-(2-(dimethylamino)-7-azaspiro[3.5]nonan-7-yl)-5-((4-((2-(dimethylphosphoryl)phenyl)amino)pyrimidin-2-yl)amino)phenyl)acrylamide]
IC50 (EGFR Δ19del/T790M/C797S): < 10 nM | IC50 (EGFR L858R): 10 to 100 nM | IC50 (EGFR T790M/L858R): < 10 nM

Compound: C=CC(=O)Nc1cc(Nc2ncc(Cl)c(Nc3ccccc3P(C)(C)=O)n2)c(OC)cc1N1CCC(N2CCN(C)CC2)CC1 [Compound 24, N-(5-((5-chloro-4-((2-(dimethylphosphoryl)phenyl)amino)pyrimidin-2-yl)amino)-4-methoxy-2-(4-(4-methylpiperazin-1-yl)piperidin-1-yl)phenyl)acrylamide]
IC50 (EGFR Δ19del/T790M/C797S): < 10 nM | IC50 (EGFR L858R): 10 to 100 nM | IC50 (EGFR T790M/L858R): < 10 nM | IC50 (HCC827(Δ19del); [2]): 10 to 50 nM

Compound: C=CC(=O)Nc1cc(Nc2ncc(C)c(Nc3ccccc3P(C)(C)=O)n2)c(OC)cc1N(C)CCN(C)C [Compound 21, N-(2-((2-(dimethylamino)ethyl)(methyl)amino)-5-((4-((2-(dimethylphosphoryl)phenyl)amino)-5-methylpyrimidin-2-yl)amino)-4-methoxyphenyl)acrylamide]
IC50 (EGFR Δ19del/T790M/C797S): 10 to 100 nM | IC50 (EGFR L858R): < 10 nM | IC50 (EGFR T790M/L858R): < 10 nM | IC50 (H1975(L858R/T790M); [1]): 10 to 50 nM | IC50 (HCC827(Δ19del); [2]): < 10 nM

Compound: C=CC(=O)Nc1cc(Nc2ncc(Br)c(Nc3ccc4nccnc4c3P(C)(C)=O)n2)c(OC)cc1N1CCC(N2CCN(C)CC2)CC1 [Compound 13, N-(5-((5-bromo-4-((5-(dimethylphosphoryl)quinoxalin-6-yl)amino)pyrimidin-2-yl)amino)-4-methoxy-2-(4-(4-methylpiperazin-1-yl)piperidin-1-yl)phenyl)acrylamide]
IC50 (H1975(L858R/T790M); [1]): 10 to 50 nM | IC50 (HCC827(Δ19del); [2]): 10 to 50 nM

Compound: C=CC(=O)Nc1cc(Nc2ncc(Cl)c(Nc3ccccc3P(C)(C)=O)n2)ccc1N1CC2(CC(N(C)C)C2)C1 [Compound 3, N-(5-((5-chloro-4-((2-(dimethylphosphoryl)phenyl)amino)pyrimidin-2-yl)amino)-2-(6-(dimethylamino)-2-azaspiro[3.3]heptan-2-yl)phenyl)acrylamide]
IC50 (EGFR Δ19del/T790M/C797S): < 10 nM | IC50 (EGFR L858R): 10 to 100 nM | IC50 (EGFR T790M/L858R): < 10 nM

Compound: C=CC(=O)Nc1cc(Nc2ncc(Cl)c(Nc3ccccc3P(C)(C)=O)n2)c(OC)cc1N(C)CCN(C)C [Compound 25, N-(5-((5-chloro-4-((2-(dimethylphosphoryl)phenyl)amino)pyrimidin-2-yl)amino)-2-((2-(dimethylamino)ethyl)(methyl)amino)-4-methoxyphenyl)acrylamide]
IC50 (HCC827(Δ19del); [2]): < 10 nM

Compound: C=CC(=O)Nc1cc(Nc2ncc(Cl)c(Nc3ccccc3P(C)(C)=O)n2)ccc1N1CC2(CCC(N(C)C)CC2)C1 [Compound 2, N-(5-((5-chloro-4-((2-(dimethylphosphoryl)phenyl)amino)pyrimidin-2-yl)amino)-2-(7-(dimethylamino)-2-azaspiro[3.5]nonan-2-yl)phenyl)acrylamide]
IC50 (EGFR Δ19del/T790M/C797S): < 10 nM | IC50 (EGFR L858R): 10 to 100 nM | IC50 (EGFR T790M/L858R): < 10 nM

Compound: C=CC(=O)Nc1cc(Nc2nccc(-c3cn(C)c4ccccc34)n2)c(OC)cc1N(C)CCN(C)C [Comparative compound B, reference compound]
IC50 (H1975(L858R/T790M); NCI-H1975, 72 h): < 10 nM | inhibition of double mutant (L858R/T790M) (H1975(L858R/T790M); summary in words of Table 2): higher inhibition | IC50 (HCC827(Δ19del); HCC827, 72 h): < 10 nM

Compound: C=CC(=O)Nc1cc(Nc2ncc(C)c(Nc3ccccc3P(C)(C)=O)n2)c(OC)cc1N1CCC(N2CCN(C)CC2)CC1 [Compound 22, N-(5-((4-((2-(dimethylphosphoryl)phenyl)amino)-5-methylpyrimidin-2-yl)amino)-4-methoxy-2-(4-(4-methylpiperazin-1-yl)piperidin-1-yl)phenyl)acrylamide]
IC50 (EGFR Δ19del/T790M/C797S): < 10 nM | IC50 (EGFR L858R): 10 to 100 nM | IC50 (EGFR T790M/L858R): < 10 nM | IC50 (HCC827(Δ19del); [2]): < 10 nM

Next, values leading:

IC50 (H1975(L858R/T790M); [1]): 10 to 50 nM | IC50 (HCC827(Δ19del); [2]): 10 to 50 nM
Compound: C=CC(=O)Nc1cc(Nc2ncc(Cl)c(Nc3ccccc3P(C)(C)=O)n2)c(C)cc1N1CCC2(CC1)CC(N(C)C)C2 [Compound 31, N-(5-((5-chloro-4-((2-(dimethylphosphoryl)phenyl)amino)pyrimidin-2-yl)amino)-2-(2-(dimethylamino)-7-azaspiro[3.5]nonan-7-yl)-4-methylphenyl)acrylamide]

IC50 (EGFR Δ19del/T790M/C797S): 10 to 100 nM | IC50 (EGFR L858R): < 10 nM | IC50 (EGFR T790M/L858R): < 10 nM | IC50 (H1975(L858R/T790M); [1]): 10 to 50 nM | IC50 (HCC827(Δ19del); [2]): < 10 nM
Compound: C=CC(=O)Nc1cc(Nc2nccc(Nc3ccccc3P(C)(C)=O)n2)ccc1N(C)CCN(C)C [Compound 37, N-(2-((2-(dimethylamino)ethyl)(methyl)amino)-5-((4-((2-(dimethylphosphoryl)phenyl)amino)pyrimidin-2-yl)amino)phenyl)acrylamide]

IC50 (EGFR Δ19del/T790M/C797S): 10 to 100 nM | IC50 (EGFR L858R): 10 to 100 nM | IC50 (EGFR T790M/L858R): 10 to 100 nM
Compound: C=CC(=O)Nc1cc(Nc2nccc(Nc3ccccc3P(C)(C)=O)n2)c(OC)cc1N1CCC(N2CCN(C)CC2)CC1 [Compound 40, N-(5-((4-((2-(dimethylphosphoryl)phenyl)amino)pyrimidin-2-yl)amino)-4-methoxy-2-(4-(4-methylpiperazin-1-yl)piperidin-1-yl)phenyl)acrylamide]

IC50 (H1975(L858R/T790M); [1]): 10 to 50 nM | IC50 (HCC827(Δ19del); [2]): < 10 nM
Compound: C=CC(=O)Nc1cc(Nc2nccc(Nc3ccccc3P(C)(C)=O)n2)c(OC)cc1N(C)CCN(C)C [Compound 39, N-(2-((2-(dimethylamino)ethyl)(methyl)amino)-5-((4-((2-(dimethylphosphoryl)phenyl)amino)pyrimidin-2-yl)amino)-4-methoxyphenyl)acrylamide]

IC50 (EGFR Δ19del/T790M/C797S): 10 to 100 nM | IC50 (EGFR L858R): 10 to 100 nM | IC50 (EGFR T790M/L858R): 10 to 100 nM | IC50 (HCC827(Δ19del); [2]): 10 to 50 nM
Compound: C=CC(=O)Nc1cc(Nc2ncc(F)c(Nc3ccccc3P(C)(C)=O)n2)c(OC)cc1N1CCC(N2CCN(C)CC2)CC1 [Compound 28, N-(5-((4-((2-(dimethylphosphoryl)phenyl)amino)-5-fluoropyrimidin-2-yl)amino)-4-methoxy-2-(4-(4-methylpiperazin-1-yl)piperidin-1-yl)phenyl)acrylamide]

IC50 (EGFR Δ19del/T790M/C797S): 10 to 100 nM | IC50 (EGFR L858R): 10 to 100 nM | IC50 (EGFR T790M/L858R): 10 to 100 nM
Compound: C=CC(=O)Nc1cc(Nc2nccc(Nc3ccccc3P(C)(C)=O)n2)ccc1N1CCC(N2CCN(C)CC2)CC1 [Compound 38, N-(5-((4-((2-(dimethylphosphoryl)phenyl)amino)pyrimidin-2-yl)amino)-2-(4-(4-methylpiperazin-1-yl)piperidin-1-yl)phenyl)acrylamide]

IC50 (EGFR Δ19del/T790M/C797S): < 10 nM | IC50 (EGFR L858R): 10 to 100 nM | IC50 (EGFR T790M/L858R): < 10 nM
Compound: C=CC(=O)Nc1cc(Nc2ncc(Cl)c(Nc3ccccc3P(C)(C)=O)n2)c(OC)cc1N1CC2(CCC(N(C)C)CC2)C1 [Compound 26, N-(5-((5-chloro-4-((2-(dimethylphosphoryl)phenyl)amino)pyrimidin-2-yl)amino)-2-(7-(dimethylamino)-2-azaspiro[3.5]nonan-2-yl)-4-methoxyphenyl)acrylamide]

IC50 (H1975(L858R/T790M); [1]): < 10 nM | IC50 (HCC827(Δ19del); [2]): < 10 nM
Compound: C=CC(=O)Nc1cc(Nc2ncc(F)c(Nc3ccccc3P(C)(C)=O)n2)c(OC)cc1N(C)CCN(C)C [Compound 27, N-(2-((2-(dimethylamino)ethyl)(methyl)amino)-5-((4-((2-(dimethylphosphoryl)phenyl)amino)-5-fluoropyrimidin-2-yl)amino)-4-methoxyphenyl)acrylamide]
